According to PMC7601397, “Discovery of Sulforaphane as a Potent BACE1 Inhibitor Based on Kinetics and Computational Studies” (Nutrients, 2020):

Target: BACE1 (Homo sapiens, UniProt P56817)
Test: FRET enzyme assay (kit); Dixon and Lineweaver-Burk kinetics
Type: biochemical

BACE1, sequence (P56817 46-457): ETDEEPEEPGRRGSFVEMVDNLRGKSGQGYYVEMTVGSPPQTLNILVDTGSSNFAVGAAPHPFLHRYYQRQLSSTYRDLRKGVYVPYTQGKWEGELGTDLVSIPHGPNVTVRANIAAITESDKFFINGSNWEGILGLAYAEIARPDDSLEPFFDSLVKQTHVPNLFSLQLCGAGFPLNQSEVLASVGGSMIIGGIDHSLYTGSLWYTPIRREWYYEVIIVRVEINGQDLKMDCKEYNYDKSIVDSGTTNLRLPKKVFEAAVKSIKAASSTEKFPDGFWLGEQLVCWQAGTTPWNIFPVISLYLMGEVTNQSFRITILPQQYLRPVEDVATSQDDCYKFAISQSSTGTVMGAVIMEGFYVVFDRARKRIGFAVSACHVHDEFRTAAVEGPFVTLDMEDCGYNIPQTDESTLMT

SMILES: C[S+]([O-])CCCCN=C=S (stereo not shown) [Sulforaphane]
- Ki: 3.1 µM
